Results taken from patent publication US10172814B2, “Substituted pyridyl-cycloalkyl-carboxylic acids, compositions containing them and medical uses thereof” (BAYER PHARMA AKTIENGESELLSCHAFT, priority 2014, dated 2019).

Each compound was assayed against human PTGES (Homo sapiens (Human), UniProt O14684) (assay: Human PTGES biochemical enzyme inhibition assay (conversion of PGH2 to PGE2, TR-FRET)). Settings: Enzymatic conversion of PGH2 to PGE2; read-out: Human PTGES IC50.
Summary of the method: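 FLAG-tagged human PTGES from Hi-5 insect cells preincubated 15–20 min with compound in pH 7.2 phosphate buffer with 2.5 mM reduced glutathione; reaction started with 8 nM PGH2 final, stopped with SnCl2/KF.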

human PTGES, sequence (O14684 whole entry): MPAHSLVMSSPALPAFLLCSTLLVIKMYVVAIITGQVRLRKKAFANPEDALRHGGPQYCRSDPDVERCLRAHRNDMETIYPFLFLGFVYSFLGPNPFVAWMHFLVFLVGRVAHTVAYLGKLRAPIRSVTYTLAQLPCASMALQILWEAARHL

`Cc1c(CCC(=O)O)cccc1NC(=O)C(c1ccc(-c2cncc(CC(F)(F)F)c2)c(F)c1)C1CCCC1` (single isomer, unassigned; (-)) [Example 196, (−) 3-{3-[(cyclopentyl{3-fluoro-4-[5-(2,2,2-trifluoroethyl)pyridin-3-yl]phenyl}acetyl)amino]-2-methylphenyl}propanoic acid, Single Enantiomer] was tested. Which IC50 did it give?
Its IC50 is 74.7 nM.

With `Cc1c(CCC(=O)O)cccc1NC(=O)C(c1ccc(-c2cnc(F)c(C(F)(F)F)c2)c(F)c1)C1CCCC1` (single isomer, unassigned; (-)) [Example 197] as the compound, how does the IC50 read?
Its IC50 is 19.3 nM.

`Cc1ncc(-c2ccc(C(C(=O)Nc3cccc(CCC(=O)O)c3C)C3CCCC3)cc2F)cc1CC(C)C` (single isomer, unassigned; (-)) [Example 198, (−) 3-[3-({cyclopentyl[3-fluoro-4-(5-isobutyl-6-methylpyridin-3-yl)phenyl]acetyl}amino)-2-methylphenyl]propanoic acid, Single Enantiomer] was tested. Which IC50 did it give?
Its IC50 is 20 nM.

Which IC50 does the source give for `Cc1c(CCC(=O)O)cccc1NC(=O)C(c1ccc(-c2cncc(OC(C)C)c2)c(F)c1)C1CCCC1` (single isomer, unassigned; (-)) [Example 199, (−) 3-[3-({cyclopentyl[3-fluoro-4-(5-isopropoxypyridin-3-yl)phenyl]acetyl}amino)-2-methylphenyl]propanoic acid, Single Enantiomer] here?
The IC50 was 30.2 nM.

How did the IC50 turn out when `Cc1ncc(-c2ccc(C(C(=O)Nc3cccc(CCC(=O)O)c3C)C3CCC3)cc2F)cc1C(F)(F)F` (single isomer, unassigned; (-)) [Example 206, (−) 3-{3-[(cyclobutyl{3-fluoro-4-[6-methyl-5-(trifluoromethyl)pyridin-3-yl]phenyl}acetyl)amino]-2-methylphenyl}propanoic acid, Single Enantiomer] was run?
Its IC50 is 10.1 nM.

With `Cc1c(CCC(=O)O)cccc1NC(=O)C(c1ccc(-c2cncc(C(F)(F)F)c2)c(F)c1)C1CCC1` (single isomer, unassigned; (-)) [Example 208, (−) 3-{3-[(cyclobutyl{3-fluoro-4-[5-(trifluoromethyl)pyridin-3-yl]phenyl}acetyl)amino]-2-methylphenyl}propanoic acid, Single Enantiomer] as the compound, how does the IC50 read?
The IC50 was 28.1 nM.

With `Cc1c(CCC(=O)O)cccc1NC(=O)C(c1ccc(-c2cncc(OC(C)C)c2)c(F)c1)C1CCC1` (single isomer, unassigned; (-)) [Example 209, (−) 3-[3-({cyclobutyl[3-fluoro-4-(5-isopropoxypyridin-3-yl)phenyl]acetyl}amino)-2-methylphenyl]propanoic acid, Single Enantiomer] as the compound, how does the IC50 read?
The IC50 was 39.3 nM.

Which IC50 does the source give for `CCc1cncc(-c2ccc(C(C(=O)Nc3cccc(CCC(=O)O)c3C)C3CCC3)cc2F)c1` (single isomer, unassigned; (-)) [Example 210, (−) 3-[3-({cyclobutyl[4-(5-ethylpyridin-3-yl)-3-fluorophenyl]acetyl}amino)-2-methylphenyl]propanoic acid, Single Enantiomer] here?
The IC50 was 35 nM.

For `Cc1c(CC(C)C(=O)O)cccc1NC(=O)C(c1ccc(-c2cncc(C(F)(F)F)c2)cc1)C1CCCC1` (single isomer, unassigned; stereoisomer 1) [Example 69, 3-{3-[(Cyclopentyl{4-[5-(trifluoromethyl)pyridin-3-yl]phenyl}acetyl)amino]-2-methylphenyl}-2-methylpropanoic acid, Stereoisomer 1], which IC50 is on record?
Its IC50 is 8740 nM.

For `Cc1ncc(-c2ccc(C(C(=O)Nc3cccc(CC(C)C(=O)O)c3C)C3CCCC3)cc2)cc1Cl` (single isomer, unassigned; stereoisomer 1) [Example 83, 3-[3-({[4-(5-Chloro-6-methylpyridin-3-yl)phenyl](cyclopentyl)acetyl}amino)-2-methylphenyl]-2-methylpropanoic acid, Stereoisomer 1], which IC50 is on record?
The IC50 was 11700 nM.

With `Cc1c(NC(=O)C(c2ccc(-c3cncc(C(F)(F)F)c3)c(F)c2)C2CCCC2)cccc1C(C)CC(=O)O` (single isomer, unassigned; stereoisomer 1) [Example 116, 3-{3-[(Cyclopentyl{3-fluoro-4-[5-(trifluoromethyl)pyridin-3-yl]phenyl}acetyl)amino]-2-methylphenyl}butanoic acid, Stereoisomer 1] as the compound, how does the IC50 read?
Its IC50 is 3.49 nM.

With `Cc1ncc(-c2ccc(C(C(=O)Nc3cccc(C(C)CC(=O)O)c3C)C3CCCC3)cc2F)cc1Cl` (single isomer, unassigned; stereoisomer 1) [Example 121, 3-[3-({[4-(5-Chloro-6-methylpyridin-3-yl)-3-fluorophenyl](cyclopentyl)acetyl}amino)-2-methylphenyl]butanoic acid, Stereoisomer 1] as the compound, how does the IC50 read?
The IC50 was 382 nM.

Which IC50 does the source give for `Cc1c(NC(=O)C(c2ccc(-c3cncc(Cl)c3)c(F)c2)C2CCCC2)cccc1C(C)CC(=O)O` (single isomer, unassigned; stereoisomer 1) [Example 126, 3-[3-({[4-(5-Chloropyridin-3-yl)-3-fluorophenyl](cyclopentyl)acetyl}amino)-2-methylphenyl]butanoic acid, Stereoisomer 1] here?
The IC50 was 646 nM.

How did the IC50 turn out when `Cc1c(NC(=O)C(c2ccc(-c3cncc(Cl)c3)cc2)C2CCC2)cccc1C(C)CC(=O)O` (single isomer, unassigned; stereoisomer 1) [Example 136] was run?
Its IC50 is 12.7 nM.

`Cc1c(NC(=O)C(c2ccc(-c3cncc(C(F)(F)F)c3)c(F)c2)C2CCC2)cccc1C(C)CC(=O)O` (single isomer, unassigned; stereoisomer 1) [Example 147, 3-{3-[(Cyclobutyl{3-fluoro-4-[5-(trifluoromethyl)pyridin-3-yl]phenyl}acetyl)amino]-2-methylphenyl}butanoic acid, Stereoisomer 1] was tested. Which IC50 did it give?
Its IC50 is 1310 nM.

For `Cc1c(NC(=O)C(c2ccc(-c3cncc(Cl)c3)c(F)c2)C2CCC2)cccc1C(C)CC(=O)O` (single isomer, unassigned; stereoisomer 1) [Example 150, 3-[3-({[4-(5-Chloropyridin-3-yl)-3-fluorophenyl](cyclobutyl)acetyl}amino)-2-methylphenyl]butanoic acid, Stereoisomer 1], which IC50 is on record?
The IC50 was 2620 nM.

How did the IC50 turn out when `Cc1c(CC(C)C(=O)O)cccc1NC(=O)C(c1ccc(-c2cncc(C(F)(F)F)c2)cc1)C1CCCC1` (single isomer, unassigned; stereoisomer 2) [Example 70, 3-{3-[(Cyclopentyl{4-[5-(trifluoromethyl)pyridin-3-yl]phenyl}acetyl)amino]-2-methylphenyl}-2-methylpropanoic acid, Stereoisomer 2] was run?
Its IC50 is 52.9 nM.

How did the IC50 turn out when `Cc1ncc(-c2ccc(C(C(=O)Nc3cccc(CC(C)C(=O)O)c3C)C3CCCC3)cc2)cc1Cl` (single isomer, unassigned; stereoisomer 2) [Example 84, 3-[3-({[4-(5-Chloro-6-methylpyridin-3-yl)phenyl](cyclopentyl)acetyl}amino)-2-methylphenyl]-2-methylpropanoic acid, Stereoisomer 2] was run?
Its IC50 is 41.1 nM.

With `Cc1c(NC(=O)C(c2ccc(-c3cncc(C(F)(F)F)c3)c(F)c2)C2CCCC2)cccc1C(C)CC(=O)O` (single isomer, unassigned; stereoisomer 2) [Example 117, 3-{3-[(Cyclopentyl{3-fluoro-4-[5-(trifluoromethyl)pyridin-3-yl]phenyl}acetyl)amino]-2-methylphenyl}butanoic acid, Stereoisomer 2] as the compound, how does the IC50 read?
The IC50 was 15.6 nM.
